Experimental data taken from patent publication US20080140036A1, “Antimicrobial Composition” (priority 2004, published 2008).

System: Candida Albicans
Experiment: Franz cell bioassay, infected stratum corneum sheet, ATP assay
Assay type: cell-based
Details: after 2 hours incubation, FIG. 6
Procedure: The concentration of organisms in suspension was determined by fluorescence technique and a viable count used for confirmation by conducting an ATP assay where ATP in cell lysate represents a measure for viable cells. Therefore, the number of viable cells after exposure to drug can be measured for drug activity and was used for suspension method or skin model.
Stratum corneum (SC) sheets were infected with microorganisms in-vitro and a Franz cell was set-up to provide more realistic conditions than agar plate test
A sample of Candida albicans (5×10^7) was dried on the stratum corneum sheet and PBS used as receiver fluid. The Micap formulations were used at 10% aqueous suspensions and the Micap formulations and Pevaryl® were applied to the stratum corneum sheet and incubated at 37° C. The reaction was stopped after set time by dismantling the Franz cell and transferring the stratum corneum into TCA. ATP assay was then carried out on the cell lysate to determine activity.
`CCO` [20% ethanol, ethanol] gave an ATP remaining of 75%.

System: not given
Experiment: not given
Details: cited from earlier work
In the case of `CC/C=C\CCOC(=O)CCC` [(Z)-3-hexenyl butanoate], the “logP(o/w)” value is listed as 2.4.
In the case of `CCCCCCCCCCCCCC` [Tetradecane], the “logP(o/w)” value is listed as 7.2.
For `CC(C)=CC(=O)OCCc1ccccc1` [2-phenylethyl 3-methyl-2-butenoate], the “logP(o/w)” value is given as 2.7.
In the case of `Fc1cc(F)cc(F)c1` [1,3,5-Trifluorobenzene], the “logP(o/w)” value is given as 2.6.
In the case of `CCCCC(C)C(=O)O` (centres unmarked) [2-methyl hexanoic acid], the “logP(o/w)” value is given as 2.1.
In the case of `CCCSSCCC` [dipropyl disulfide], the “logP(o/w)” value is listed as 3.7.
In the case of `C=CC(C)(CCC=C(C)C)OC(=O)CCCCC` (centres unmarked) [1,5-dimethyl-1-vinyl-4-hexenyl hexanoate], the “logP(o/w)” value is given as 4.5.
For `CCOC(=O)CC(C)C` [ethyl 3-methylbutanoate], the “logP(o/w)” value is listed as 1.8.
In the case of `CCCCCCCO` [Micap 1-Heptanol, 1-Heptanol], the “logP(o/w)” value is listed as 3.1.
For `CCc1ccc(O)c(OC)c1` [4-ethyl-2-methoxy phenol], the “logP(o/w)” value is given as 2.4.
For `COC(=O)CCCCC(=O)OC` [Dimethyl adipate], the “logP(o/w)” value is listed as 1.4.
For `CC(C)c1ccccc1O` [2-isopropyl phenol], the “logP(o/w)” value is listed as 2.7.
In the case of `CCCCCCCCC` [Nonane], the “logP(o/w)” value is given as 4.8.
For `CCCCCCCC1CCCC(=O)O1` (racemic) [(+−)-5-dodecanolide], the “logP(o/w)” value is listed as 4.0.
In the case of `CCCCCCC(C)=O` [octan-2-one], the “logP(o/w)” value is listed as 2.3.
For `CCCCCCCCCC` [Decane], the “logP(o/w)” value is given as 5.3.
In the case of `CCCCCCCCOC(=O)C(C)C` [octyl isobutyrate], the “logP(o/w)” value is given as 4.2.
In the case of `Fc1cccc(F)c1` [1,3-Difluorobenzene], the “logP(o/w)” value is listed as 2.4.
For `CCCCCC(=O)OCC` [ethyl hexanoate], the “logP(o/w)” value is given as 2.3.
For `CCCCCCCCOC(C)=O` [octyl acetate], the “logP(o/w)” value is given as 3.3.
For `CCCCCC1CCCC(=O)O1` (centres unmarked) [Micap 5-decanolide, 5-decanolide], the “logP(o/w)” value is listed as 3.1.
For `CCCCCCCCC(=O)OCC` [ethyl nonanoate], the “logP(o/w)” value is listed as 3.7.
In the case of `Cc1cccc(I)c1` [3-Iodotoluene], the “logP(o/w)” value is given as 3.7.
In the case of `CC(=O)OCC(COC(C)=O)OC(C)=O` [triacetin], the “logP(o/w)” value is given as 0.4.
For `CC/C=C/CC(=O)OCC` [ethyl (E)-3-hexenoate], the “logP(o/w)” value is given as 1.7.
For `CCCCCC(C)=O` [heptan-2-one], the “logP(o/w)” value is given as 1.9.
For `CC/C=C\CCOC(=O)C(C)CC` (centres unmarked) [(Z)-3-hexenyl 2-methylbutanoate], the “logP(o/w)” value is listed as 2.8.
In the case of `CCCCCCCCN1CCCC1=O` [1-octyl-2-pyrrolidinone], the “logP(o/w)” value is listed as 3.3.
For `CCCCCCCCO` [octanol], the “logP(o/w)” value is given as 2.8.
For `CC(C)CCN` [3-methyl butylamine], the “logP(o/w)” value is given as 1.1.
In the case of `CC/C=C\CCOC(C)=O` [(Z)-3-hexenyl acetate], the “logP(o/w)” value is given as 1.5.
